Reference: patent US20140303105A1, “Primycin and components thereof for use in the treatment or prevention of infections caused by specific pathogens” (PANNONPHARMA GYÓGYSZERGYÁRTÓ ZRT., priority 2011, published 2014)

Experiments:
[1] = test system: S. aureus ATCC 25923; conditions: by Bryskier; cited from earlier work
[2] = test system: erythromycin-sensitive Staphylococcus spp. strains; conditions: collection of 279 strains; cited from earlier work
[3] = test system: Staphylococcus epidermidis; conditions: by Bryskier; cited from earlier work
[4] = test system: erythromycin-resistant staphylococci; conditions: 71 strains; cited from earlier work
[5] = test system: Streptococcus mitis 5728; conditions: cited from earlier work
[6] = test system: Staphylococcus capitis; conditions: cited from earlier work
[7] = test system: S. pyogenes; conditions: by Bryskier; cited from earlier work
[8] = test system: Diphteroides 8264; conditions: cited from earlier work
[9] = test system: S. aureus and coagulase-negative staphylococci; conditions: Bryskier 2005; cited from earlier work
[10] = test system: Escherichia coli B 1218; conditions: cited from earlier work
[11] = test system: Bacillus subtilis ATCC 6633; conditions: cited from earlier work
[12] = test system: Enterococcus sp., decreased vancomycin susceptibility; experiment: Standard microdilution susceptibility test, clinical isolates; format: cell-based; conditions: 5 clinical isolates
[13] = test system: Streptococcus pneumoniae, penicillin susceptible; experiment: as above; format: cell-based; conditions: for MIC: single isolate
[14] = test system: Staphylococcus aureus ATCC 25923; conditions: cited from earlier work
[15] = test system: B. subtilis ATCC 6633; conditions: by Bryskier; cited from earlier work
[16] = test system: Streptococcus pneumoniae, penicillin resistant; experiment: Standard microdilution susceptibility test, clinical isolates; format: cell-based
[17] = test system: S. aureus ATCC 25923; conditions: Uri and Actor 1979; cited from earlier work
[18] = test system: Staphylococcus aureus, methicillin susceptible; experiment: Standard microdilution susceptibility test, clinical isolates; format: cell-based; conditions: 10 clinical isolates
[19] = test system: S. aureus; conditions: by Bryskier; cited from earlier work
[20] = test system: Coryneform(s); conditions: by Bryskier; cited from earlier work
[21] = test system: Staphylococcus saprophyticus 8454; conditions: cited from earlier work
[22] = test system: Coagulase-negative Staphylococus sp., methicillin resistant; experiment: Standard microdilution susceptibility test, clinical isolates; format: cell-based; conditions: 10 clinical isolates
[23] = test system: E. casseliflavus; experiment: Microdilution MIC, Enterococcus isolates with van resistance genes; format: cell-based
Method: (§1) Identification and characterization of resistance patterns of these bacteria were performed by standard methods.
(§2) When forming the test groups we attached great importance to the increasing incidence of drug-resistant microbes causing therapeutic problems. Most important of them are methicillin-resistant Staphylococcus aureus (MRSA), methicillin-resistant coagulase-negative Staphylococcus spp. (MRCoNS), penicillin-resistant Streptococcus pneumoniae (pneumococcus), vancomycin-resistant Enterococcus spp. (VRE). Pneumococcus isolates represented various serotypes, VRE isolates belonged to various species. Moreover, vancomycin-resistance of VRE isolates was based on different genetic backgrounds. Antibiotic-resistant strains were also represented among international reference strains, for example methicillin-resistant Staphylococcus aureus ATCC 43300 (MRSA), Staphylococcus aureus with decreased vancomycin susceptibility ATCC 700698 and 700699 (vancomycin intermediate Staphylococcus aureus—VISA), mupirocin-resistant Staphylococcus aureus ATCC BAA1708 and vancomycin-resistant Enterococcus faecalis ATCC 51299 (VRE).
(§3) Susceptibility tests were performed according to the standard microdilution method (NCCLS (CLSI) M7-A7).
(§4) The lowest concentration at which no bacterial growth was observed after the incubation period is the Minimal Inhibitory Concentration (MIC). The MIC value is inversely proportional to the antimicrobial efficacy. MIC values of antimicrobial agents can differ by species or even by bacterial strains within species.

[24] = test system: E. faecium; experiment: as above; format: cell-based; conditions: resistance gene van B
Method: as §1, §2, §3, §4

[25] = test system: E. faecalis; experiment: as above; format: cell-based
Method: as §1, §2, §3, §4

[26] = test system: Coagulase-negative Staphylococus sp., methicillin susceptible; experiment: Standard microdilution susceptibility test, clinical isolates; format: cell-based; conditions: 10 clinical isolates

For Primycin, the MIC [1] is given as 25 µg/mL, the “share of strains primycin-resistant (MIC≧5 mg/L)” value [2] is given as 1% and the MIC [3] is given as 0.78 µg/mL. For the same substance, the “share of strains presenting primycin resistance” value [4] was 13%, the MIC [5] was 50.0 µg/mL and the MIC [6] was 0.78 µg/mL. The MIC [7] was 1.56 µg/mL, the MIC [8] was 50.0 µg/mL and the efficacy [9] was “effective”. For the same substance, the MIC [10] was 50.0 µg/mL, the MIC [11] was 0.39 µg/mL and the “MIC Range” value [12] was 0.25 to 0.5 µg/mL. For the same substance, the “Ratio of Sensitive/Total” value [12] was 5/5, the “MIC 50%” value ([13]; 10 clinical isolates) was 0.5 µg/mL and the “MIC 90%” value ([13]; 10 clinical isolates) was 0.5 µg/mL. For the same substance, the “MIC Range” value ([13]; 10 clinical isolates) was 0.25 to 1 µg/mL, the “Ratio of Sensitive/Total” value ([13]; 10 clinical isolates) was 10/10 and the MIC ([13]; serotype 3) was 0.5 µg/mL. It also gave an MIC ([13]; serotype 4) of 0.5 µg/mL, an MIC ([13]; serotype 7F) of 0.5 µg/mL and an MIC ([13]; serotype 8) of 0.5 µg/mL. It also gave an MIC ([13]; serotype 9(V)) of 0.5 µg/mL, an MIC ([13]; serotype 11(A)) of 0.5 µg/mL and an MIC ([13]; serotype 19F) of 0.5 µg/mL. The MIC ([13]; serotype 23(F)) was 0.25 µg/mL, the MIC [14] was 25.0 µg/mL and the MIC [15] was 0.39 µg/mL. For the same substance, the “MIC 50%” value ([16]; 10 clinical isolates) was 0.5 µg/mL, the “MIC 90%” value ([16]; 10 clinical isolates) was 1 µg/mL and the “MIC Range” value ([16]; 10 clinical isolates) was 0.5 to 1 µg/mL. For the same substance, the “Ratio of Sensitive/Total” value ([16]; 10 clinical isolates) was 10/10, the MIC ([16]; single isolate, serotype 23(F)) was 0.5 µg/mL and the “MIC (not inhibited at the highest concentration tested)” value [17] was greater than 2 µg/mL. The “MIC 50%” value [18] was 0.06 µg/mL, the “MIC 90%” value [18] was 0.06 µg/mL and the “MIC Range” value [18] was 0.06-0.06 mg/L. The “Ratio of Sensitive/Total” value [18] was 10/10, the MIC [19] was 0.39 µg/mL and the MIC [20] was 50 µg/mL. The MIC [21] was 0.39 µg/mL, the “MIC 50%” value [22] was 0.06 µg/mL and the “MIC 90%” value [22] was 0.06 µg/mL. The “MIC Range” value [22] was 0.03 to 0.06 µg/mL, the “Ratio of Sensitive/Total” value [22] was 10/10 and the MIC ([23]; resistance gene van C1) was 0.5 µg/mL. For the same substance, the MIC ([23]; resistance gene van C2) was 0.5 µg/mL, the MIC [24] was 0.25 µg/mL and the MIC ([25]; resistance gene van A) was 0.5 µg/mL. For the same substance, the MIC ([25]; resistance gene van C1) was 0.5 µg/mL, the “MIC 50%” value [26] was 0.03 µg/mL and the “MIC 90%” value [26] was 0.06 µg/mL. For the same substance, the “MIC Range” value [26] was 0.03 to 0.06 µg/mL and the “Ratio of Sensitive/Total” value [26] was 10/10.
